Source: patent publication US4743617A, “Heterocyclyl-2-propyn-1-amines” (Merrell Dow Pharmaceuticals Inc., priority 1987, dated 1988)

Assays:
[1] = tested on: dopamine-beta-hydroxylase (DBH); assay: time-dependent DBH inhibitory activity in vitro (oxygen uptake, tyramine substrate); type: biochemical; conditions: Concentration 5 × 10^-5 M, preferably pH 5.0, 37° C.
Method: The DBH inhibitory properties of the compounds of this invention can readily be determined by standard and well-known procedures. […] The test compound is added at the desired concentration, and the system is incubated. At different time internals, aliquots are taken and DBH activity is measured using tyramine as the substrate. The reaction is followed by measuring oxygen uptake using a polarographic electrode and an oxygen monitor by the method of S. May et al., J. Bio. Chem. 256, 2258 (1981).

[2] = tested on: spontaneously hypertensive rats; assay: lowering of mean blood pressure in conscious spontaneously hypertensive rats (Table II, DBH inhibitory activity in vivo); conditions: 30 mg/kg (ip), unanesthetized spontaneously hypertensive rats
Method: The ability of the compounds of this invention to lower blood pressure can be determined in vivo using standard and well-known procedures such as those employed for the continuous recording of arterial blood pressure in conscious animals. For instance, test compounds are administered intraperitoneally (ip) to unanesthetized spontaneously hypertensive rats and the arterial blood pressure is monitored continuously. In tests utilizing the above procedure, the antihypertensive effect of the test compound is readily apparent as indicated by the degree of lowering of mean blood pressure (MBP) noted in Table II.

t 1/2: time required for 50% log activity remaining [1]: 9.2 min.
SMILES: NCC#Cc1cccs1 [3-(2-thienyl)-2-propyn-1-amine]
Duration [2]: 14 h | Max Change MBP +/St. dev. [2]: -20+/-8 mm Hg
